Results published in the supplement of paper PMC11208160.

assay: recombinant UMI read abundance after kanamycin selection (control-corrected) (log10(CPM+1)); higher = more efficient recombination; extreme values may be limits of the assay; sequences stand for … in AGTGCAGAGAAAATCGGCCAGTTTTCTCTGCCTGCAGTCCGCATGCCGTGGGACCCCTTGGGTTCTAACCTGTTGCCTAGATTTATGCAGCGGACTGCCTTTCTCCCAAAGTGATAAACCGG…AGGTTGGTTTCACT; site = the 11-nt donor
Method in brief: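 Counts of recombinant UMIs were reported as log10(CPM+1). Before that, they were converted to CPM, averaged over replicates and scaled using control-derived factors. They came from PCR across the donor–target junction after Escherichia coli carrying the pair library and target plasmid was plated on IPTG (0.07 mM) plus kanamycin, or unselected, in two replicates each.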
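Note: IS621 bridge recombinase in Escherichia coli cells against a fixed T5 target plasmid.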

In order of falling “recombinant UMI read abundance (log10)” value:
1. ATGTAGTCATGGACCGGTTTTCCCGGTAATCCGTATTTGGT (site ATGTAGTCTAC)  2.81
2. ATTAAGTCATGGACCGGTTTTCCCGGTAATCCGTATTTGTA (site ATTAAGTCTTA)  2.58
3. ATTCACGCATGGACCGGTTTTCCCGGTAATCCGTATTTGCA (site ATTCACGCTTG)  2.42
4. ATGTAGGCATGGACCGGTTTTCCCGGTAATCCGTATTTGCC (site ATGTAGGCTGG)  2.21
5. ATTGAGACATGGACCGGTTTTCCCGGTAATCCGTATTTGGT (site ATTGAAACTAC)  1.88
6. ATTCATACATGGACCGGTTTTCCCGGTAATCCGTATTTGGC (site ATTCATACTGC)  1.81
7. ATTGAGACATGGACCGGTTTTCCCGGTAATCCGTATTTGGT (site ATAGAGACTAC)  1.78
8. ATGTAGGCATGGACCGGTTTTCCCGGTAATCCGTATTTGCC (site ATGTAGGCTGT)  1.7
9. ATTGAAACATGGACCGGTTTTCCCGGTAATCCGTATTTGGT (site ATTGAAACTAC)  1.66
10. ATTGAGACATGGACCGGTTTTCCCGGTAATCCGTATTTGGT (site ATTAAGACTAC)  1.62
11. ATTCGAGCATGGACCGGTTTTCCCGGTAATCCGTATTTGAA (site ATTCGAGCTTT)  1.31
12. ATTAGAACATGGACCGGTTTTCCCGGTAATCCGTATTTGAG (site ATTAGAACTCT)  1.22
13. ATTGAGACATGGACCGGTTTTCCCGGTAATCCGTATTTGGA (site ATTGAGACTTC)  1
14. ATTGAGACATGGACCGGTTTTCCCGGTAATCCGTATTTGGT (site ACTGAGACTAC)  0.972
15. ATTGAGACATGGACCGGTTTTCCCGGTAATCCGTATTTGGT (site ATCGAGACTAC)  0.854
16. ATTCCATCATGGACCGGTTTTCCCGGTAATCCGTATTTGAC (site ATTCCATCTGT)  0.764
17. ATTATCCCATGGACCGGTTTTCCCGGTAATCCGTATTTGCC (site ATTATCCCTGG)  0.749
18. ATTAGAACATGGACCGGTTTTCCCGGTAATCCGTATTTGAG (site ACTAGAACTCT)  0.665
19. ATTGAGACATGGACCGGTTTTCCCGGTAATCCGTATTTGGA (site ATTGAGACTCC)  0.663
20. ATTGAGACATGGACCGGTTTTCCCGGTAATCCGTATTTGGA (site ATTGAGACTGC)  0.645
21. ATTGAGACATGGACCGGTTTTCCCGGTAATCCGTATTTGGT (site ATGGAGACTAC)  0.639
22. ATTGAGACATGGACCGGTTTTCCCGGTAATCCGTATTTGGT (site AGTGAGACTAC)  0.609
23. ATTGAAACATGGACCGGTTTTCCCGGTAATCCGTATTTGGT (site ATTGAGACTAC)  0.484
24. ATTAGAACATGGACCGGTTTTCCCGGTAATCCGTATTTGAG (site AATAGAACTCT)  0.403
25. ATTGAGACATGGACCGGTTTTCCCGGTAATCCGTATTTGGT (site ATTCAGACTAC)  0.296
26. ATTAGAACATGGACCGGTTTTCCCGGTAATCCGTATTTGAG (site AGTAGAACTCT)  0.286
27. ATTGAGACATGGACCGGTTTTCCCGGTAATCCGTATTTGGT (site AATGAGACTAC)  0.233
28. ATTGAAACATGGACCGGTTTTCCCGGTAATCCGTATTTGGT (site ATTGACACTAC)  0.0867
29. ATTGAGACATGGACCGGTTTTCCCGGTAATCCGTATTTGGT (site ATTGACACTAC)  0.0545
30. ATTGAGACATGGACCGGTTTTCCCGGTAATCCGTATTTGGA (site ATTGAGACTAC)  0.0442
31. ATTGACCCATGGACCGGTTTTCCCGGTAATCCGTATTTGGA (site ATTGACCCTTC)  0.0199
32. ATTAGGCCATGGACCGGTTTTCCCGGTAATCCGTATTTGAC (site ATCAGGCCTGT)  0.0148
33. ATTGAAACATGGACCGGTTTTCCCGGTAATCCGTATTTGGT (site ATTGATACTAC)  0.0144
34. ATTCAGCCATGGACCGGTTTTCCCGGTAATCCGTATTTGTT (site ATTCAGCCTAA)  0.0136
35. ATTCCGACATGGACCGGTTTTCCCGGTAATCCGTATTTGTG (site ATTCCGACTCA)  0.00802
36. ATTAGGCCATGGACCGGTTTTCCCGGTAATCCGTATTTGAC (site ATAAGGCCTGT)  0
37. ATTAGGCCATGGACCGGTTTTCCCGGTAATCCGTATTTGAC (site ATGAGGCCTGT)  0
38. ATTAGGCCATGGACCGGTTTTCCCGGTAATCCGTATTTGAC (site ATTAGGCCTGT)  0
